Data taken from publication PMC11352859, “Functionalized Congeners of 2H-Chromene P2Y6 Receptor Antagonists” (Cells, 2024).
“And” between values parts separate entries of the source, which are not always exact repeats. Identical values can stand only once. Like-named read-outs stand apart in the source and are kept apart here. One block for each molecule: values may come before it.

Key:
P2Y6R = P2Y6R agonist; no reference given; read-out: EC50 in PLC activation; cited from earlier work
HeLa cells = assay: MTT cell viability assay, HeLa cells; assay type: cell-based, human; details: for % survival: 12 h, MTT
Experimental: (§1) The 1321N1 astrocytoma (hP2Y6R-overexpressing) and HeLa (non-transfected) cell lines were cultured in Dulbecco’s modified Eagle’s medium (DMEM, HyClone, Logan, UT, USA) supplemented with 5% heat-inactivated fetal bovine serum (FBS, HyClone, UT, USA), 100 U/mL penicillin, and 100 µg/mL streptomycin in 5% CO2 at 37 °C. The cell viability was determined using an MTT kit (Sigma, St. Louis, MO, USA) according to the manufacturer’s instructions. Briefly, 1 × 10^4 cells were seeded in triplicate in 96-well plates. The hP2Y6R-astrocytoma and HeLa cells were treated with a P2Y6R agonist and antagonists at a range of concentrations and incubated for 12 h. The cell viability was measured at 490 nm using a SpectraMax-M5 Spectrometer (Molecular Devices, San Jose, CA, USA).

[1] = system: hP2Y6R-1321N1 human astrocytoma cells; assay: MTT cell viability assay, hP2Y6R-1321N1 astrocytoma cells; assay type: cell-based; details: for % survival: P2Y6R-astrocytoma, 12 h, MTT
Experimental: as §1

α2B = target: T1, α2B (Homo sapiens, UniProt P18089); assay: PDSP binding assay, α2B; details: mean, n = 2
T1 construct: NIMH Psychoactive Drug Screening Program (PDSP)
T1 sequence (P18089 1-450): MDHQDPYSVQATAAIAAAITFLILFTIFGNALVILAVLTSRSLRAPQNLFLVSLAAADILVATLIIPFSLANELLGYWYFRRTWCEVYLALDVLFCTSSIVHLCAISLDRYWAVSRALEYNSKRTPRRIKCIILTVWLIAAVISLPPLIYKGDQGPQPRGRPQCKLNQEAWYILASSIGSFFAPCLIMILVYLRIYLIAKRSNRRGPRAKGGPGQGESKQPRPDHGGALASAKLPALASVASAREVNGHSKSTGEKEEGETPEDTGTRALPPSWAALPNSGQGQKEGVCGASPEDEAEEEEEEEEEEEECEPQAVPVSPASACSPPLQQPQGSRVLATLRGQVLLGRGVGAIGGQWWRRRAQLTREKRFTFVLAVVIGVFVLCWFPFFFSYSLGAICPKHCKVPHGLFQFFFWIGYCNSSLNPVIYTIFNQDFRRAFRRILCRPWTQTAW
Source text: (§2) Table S2. Off-target screening (to replace table later). We thank Dr. Bryan L. Roth (Univ. North Carolina at Chapel Hill) and National Institute of Mental Health's Psychoactive Drug Screening Program (Contract # HHSN-271-2008-00025-C) for screening data. Reference: Besnard et al.
(§3) Procedures: https://pdsp.unc.edu/pdspweb/content/UNC-CH%20Protocol%20Book.pdf […]
(§4) nucleosides were found at the following sites (human unless noted): 5HT1A, 5HT1B, 5HT1D, […]
(§5) β3, BZP rat brain site, D1, D2, D3, D4, D5, GABAA, H1, H2, H3, H4, M1, M2, M5, δ-opioid receptor (DOR), κ-opioid receptor (KOR), μ-opioid receptor (MOR), σ1, σ2, DAT, NET, SERT. Ki values […]
(§6) Compound # PDSP # Receptor LogKi Ki (nM)

hP2Y6R = target: T2, hP2Y6R (Homo sapiens, UniProt Q15077); assay: UDP (100 nM)-induced Ca2+ mobilization in hP2Y6R stably transfected 1321N1 astrocytoma cells; assay type: cell-based; details: UDP 100 nM; 3–4 independent triplicate determinations; read-out: IC50, hP2Y6R (Mean ± SEM)
T2 construct: expressed in transfected cells
Experimental: To screen for P2Y6R antagonist activity, PLC-mediated calcium mobilization assays were carried out using the recombinant human P2Y6R stably expressed in 1321N1 astrocytoma cells (hP2Y6R-1321N1) according to the previously published method. Briefly, the hP2Y6R-1321N1 cells were seeded on 96-well black plates and incubated overnight. The antagonists were pretreated along with the FLIPR dye (Calcium 6 assay kit, Molecular Devices, San Jose, CA, USA) containing 5 mM probenecid for 45 min, prior to agonist addition followed by an immediate intracellular Ca^2+ measurement. […] Here, probenecid was used as an organic anion transporter inhibitor to prevent the efflux of the dye into the extracellular environment. During incubation, the membrane permeable dye enters the cytoplasm and cleaves the acetoxymethyl protection to enable Ca^2+ binding. When the P2Y6R was activated by UDP, the increased calcium concentration was directly measured by intracellular changes in the fluorescence intensity with a Fluorescent Imaging Plate Reader (FLIPR^TETRA, Molecular Devices, San Jose, CA, USA).

H1 = target: T3, H1 (Homo sapiens, UniProt P35367); assay: PDSP binding assay, H1
T3 construct: NIMH Psychoactive Drug Screening Program (PDSP)
Source text: as §2, §3, §4, §5, §6

D1 = target: T4, D1 (Homo sapiens, UniProt P21728); assay: PDSP binding assay, D1
T4 construct: NIMH Psychoactive Drug Screening Program (PDSP)
Source text: as §2, §3, §4, §5, §6

α2A [2] = target: T5, α2A (Homo sapiens, UniProt P08913); assay: PDSP binding assay, α2A
T5 construct: NIMH Psychoactive Drug Screening Program (PDSP)
T5 sequence (P08913 1-465): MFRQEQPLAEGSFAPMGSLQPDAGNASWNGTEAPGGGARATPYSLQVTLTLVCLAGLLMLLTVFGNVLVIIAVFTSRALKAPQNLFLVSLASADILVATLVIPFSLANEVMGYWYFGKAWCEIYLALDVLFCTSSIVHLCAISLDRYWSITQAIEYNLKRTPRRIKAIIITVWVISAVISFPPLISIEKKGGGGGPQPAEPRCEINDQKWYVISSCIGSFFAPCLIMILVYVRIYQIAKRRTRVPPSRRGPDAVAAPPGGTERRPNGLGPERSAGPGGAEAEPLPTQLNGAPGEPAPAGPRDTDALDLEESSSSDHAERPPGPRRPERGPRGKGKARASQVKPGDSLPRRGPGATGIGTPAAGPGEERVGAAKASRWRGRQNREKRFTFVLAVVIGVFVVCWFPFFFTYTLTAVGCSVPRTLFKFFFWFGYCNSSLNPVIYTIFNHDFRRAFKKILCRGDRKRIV
Source text: as §2, §3, §4, §5, §6

hP2Y14R = target: T6, hP2Y14R (Homo sapiens, UniProt Q15391); assay: whole-cell binding of fluorescent antagonist MRS4174 in CHO-hP2Y14R cells (flow cytometry)
T6 construct: expressed in transfected cells
T6 sequence (Q15391 1-338): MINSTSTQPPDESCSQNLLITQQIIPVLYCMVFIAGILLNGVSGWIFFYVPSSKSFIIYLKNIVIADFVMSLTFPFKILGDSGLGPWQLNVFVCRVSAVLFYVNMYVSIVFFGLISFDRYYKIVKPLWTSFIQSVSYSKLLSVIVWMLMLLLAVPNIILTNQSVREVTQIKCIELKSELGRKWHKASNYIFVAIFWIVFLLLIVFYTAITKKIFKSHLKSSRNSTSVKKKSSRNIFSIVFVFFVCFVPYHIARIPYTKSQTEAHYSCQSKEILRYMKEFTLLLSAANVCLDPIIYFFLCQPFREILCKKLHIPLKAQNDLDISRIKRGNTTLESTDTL

5-HT1D = target: T7, 5-HT1D (Homo sapiens, UniProt P28221); assay: PDSP binding assay, 5-HT1D
T7 construct: NIMH Psychoactive Drug Screening Program (PDSP)
Source text: as §2, §3, §4, §5, §6

D5 = target: T8, D5 (Homo sapiens, UniProt P21918); assay: PDSP binding assay, D5
T8 construct: NIMH Psychoactive Drug Screening Program (PDSP)
Source text: as §2, §3, §4, §5, §6

other P2YRs = details: at high µM concentrations; ref [29],[43]; cited from earlier work
α2A [3] = target: T5, α2A; parameters: method as in Jung et al., 2021 and 2022 [30],[40]; details: PDSP; ref Jung et al., 2021 and 2022 [30],[40]; cited from earlier work
µ-opioid receptor (MOR) = target: µ-opioid receptor (MOR); parameters: method as in Jung et al., 2021 and 2022 [30],[40]; details: PDSP; ref Jung et al., 2021 and 2022 [30],[40]; cited from earlier work
α2C = target: α2C; parameters: method as in Jung et al., 2021 and 2022 [30],[40]; details: PDSP; ref Jung et al., 2021 and 2022 [30],[40]; cited from earlier work
rP2Y6 = details: Figure 1; ref [33]; cited from earlier work
[4] = system: 45 target sites (receptors, channels, and transporters); assay: PDSP off-target binding screen at 45 target sites; parameters: species or system human; details: PDSP binding assays
Source text: as §2, §3, §4, §5, §6

mP2Y6 = system: mP2Y6; parameters: method as in PMID 37078976; details: Figure 1; ref [33]; cited from earlier work

T7 sequence (P28221 whole entry): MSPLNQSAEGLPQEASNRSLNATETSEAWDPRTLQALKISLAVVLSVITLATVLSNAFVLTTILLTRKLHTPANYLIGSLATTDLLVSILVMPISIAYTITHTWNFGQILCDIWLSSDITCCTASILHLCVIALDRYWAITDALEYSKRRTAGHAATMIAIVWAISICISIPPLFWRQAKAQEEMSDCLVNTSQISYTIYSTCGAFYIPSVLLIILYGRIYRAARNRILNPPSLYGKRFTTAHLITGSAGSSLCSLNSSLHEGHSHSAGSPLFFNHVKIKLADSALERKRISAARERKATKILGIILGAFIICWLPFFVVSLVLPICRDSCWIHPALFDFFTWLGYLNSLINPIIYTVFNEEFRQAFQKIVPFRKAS
T8 sequence (P21918 whole entry): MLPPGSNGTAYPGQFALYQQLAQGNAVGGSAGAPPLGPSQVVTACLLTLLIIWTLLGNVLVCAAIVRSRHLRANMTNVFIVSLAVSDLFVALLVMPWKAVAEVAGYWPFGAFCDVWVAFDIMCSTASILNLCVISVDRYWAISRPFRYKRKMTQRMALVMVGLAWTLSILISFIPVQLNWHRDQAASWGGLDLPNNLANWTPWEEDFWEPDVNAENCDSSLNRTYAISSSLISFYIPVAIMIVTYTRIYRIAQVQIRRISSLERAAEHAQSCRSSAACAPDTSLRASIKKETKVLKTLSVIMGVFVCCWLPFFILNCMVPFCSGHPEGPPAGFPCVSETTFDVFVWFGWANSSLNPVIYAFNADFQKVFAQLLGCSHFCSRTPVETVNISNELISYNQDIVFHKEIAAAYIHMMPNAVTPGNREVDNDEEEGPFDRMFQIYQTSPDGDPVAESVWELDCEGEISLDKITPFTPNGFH
T3 sequence (P35367 whole entry): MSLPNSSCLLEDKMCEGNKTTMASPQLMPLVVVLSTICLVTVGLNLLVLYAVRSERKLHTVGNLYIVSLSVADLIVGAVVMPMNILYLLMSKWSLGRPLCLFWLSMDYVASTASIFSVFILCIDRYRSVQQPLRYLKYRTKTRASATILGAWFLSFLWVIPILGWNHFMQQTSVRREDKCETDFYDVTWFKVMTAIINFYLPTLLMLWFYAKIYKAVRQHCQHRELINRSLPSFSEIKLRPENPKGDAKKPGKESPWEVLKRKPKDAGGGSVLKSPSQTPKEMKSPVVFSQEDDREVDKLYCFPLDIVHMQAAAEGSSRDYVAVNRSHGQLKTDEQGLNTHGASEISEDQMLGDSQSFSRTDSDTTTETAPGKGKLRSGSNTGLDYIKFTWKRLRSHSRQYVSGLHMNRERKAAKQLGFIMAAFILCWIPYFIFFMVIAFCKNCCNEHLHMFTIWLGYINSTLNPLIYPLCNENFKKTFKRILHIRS
T2 sequence (Q15077 whole entry): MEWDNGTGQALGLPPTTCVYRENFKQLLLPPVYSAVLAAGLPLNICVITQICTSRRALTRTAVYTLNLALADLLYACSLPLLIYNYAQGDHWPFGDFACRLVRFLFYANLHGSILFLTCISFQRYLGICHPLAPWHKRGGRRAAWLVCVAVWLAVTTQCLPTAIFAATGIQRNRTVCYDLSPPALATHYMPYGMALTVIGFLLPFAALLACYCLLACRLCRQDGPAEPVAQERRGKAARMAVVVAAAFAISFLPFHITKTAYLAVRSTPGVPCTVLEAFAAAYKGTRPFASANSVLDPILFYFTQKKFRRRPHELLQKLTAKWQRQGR
T4 sequence (P21728 whole entry): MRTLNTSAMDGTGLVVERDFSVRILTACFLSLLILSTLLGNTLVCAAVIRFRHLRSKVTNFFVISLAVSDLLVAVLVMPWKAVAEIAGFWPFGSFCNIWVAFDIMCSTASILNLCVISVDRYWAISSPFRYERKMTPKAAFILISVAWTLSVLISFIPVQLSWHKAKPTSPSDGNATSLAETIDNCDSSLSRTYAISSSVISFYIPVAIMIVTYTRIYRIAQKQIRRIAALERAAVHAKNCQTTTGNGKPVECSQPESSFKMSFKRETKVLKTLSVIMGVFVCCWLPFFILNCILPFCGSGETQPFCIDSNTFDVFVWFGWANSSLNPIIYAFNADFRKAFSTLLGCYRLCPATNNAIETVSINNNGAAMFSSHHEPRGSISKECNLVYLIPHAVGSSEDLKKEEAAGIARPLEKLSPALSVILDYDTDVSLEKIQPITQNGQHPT

Structure (SMILES): O=c1ccn([C@@H]2O[C@H](COP(=O)(O)OP(=O)(O)O)[C@@H](O)[C@H]2O)c(=O)[nH]1 [UDP, uridine 5′-diphosphate]
- EC50 (P2Y6R): 0.013 µM

Structure (SMILES): O=c1[nH]c(=O)n([C@@H]2O[C@H](COP(=O)(O)OP(=O)(O)O)[C@@H](O)[C@H]2O)cc1I [MRS2693, 5-iodouridine-5′-O-diphosphate, reference compound]
- % survival (HeLa cells; 1 µM): 105%
- % survival (HeLa cells; 5 µM): 106%
- % survival (HeLa cells; 10 µM): 104%
- % survival ([1]; 1 µM): 98%
- % survival ([1]; 5 µM): 100%
- % survival ([1]; 10 µM): 101%
- effect on viability ([1]; astrocytoma cells, ≤10 µM, 12 h exposure): no significant effect
- EC50 (P2Y6R): 0.015 µM

Structure (SMILES): CC(C)(C)OC(=O)NCCCCC#Cc1ccc2c(c1)C=C([N+](=O)[O-])C(C(F)(F)F)O2 (centres unmarked) [Compound 24, tert-Butyl (6-(3-nitro-2-(trifluoromethyl)-2H-chromen-6-yl)hex-5-yn-1-yl)carbamate]
- Ki (α2B): 0.46 µM
- IC50 (hP2Y6R): 0.568 ± 0.163 µM
- Ki (H1; PDSP, mean, n = 2, read-out: Ki, H1): 1000 nM
- Ki (H1; Table S2, single determinations, read-out: Ki (nM), H1): 631 nM and 1430 nM
- Ki (D1; PDSP, mean, n = 2, read-out: Ki, D1): 1900 nM
- Ki (D1; Table S2, single determination, read-out: Ki (nM), D1): 1600 nM
- Ki (α2A [2]; PDSP, mean, n = 2, read-out: Ki, α2A): 160 nM
- Ki (α2A [2]; Table S2, single determinations, read-out: Ki (nM), Alpha2A): 148 nM and 168 nM
- IC50 (hP2Y14R; CHO-hP2Y14, competitive binding, flow cytometer): 5.6 ± 0.7 µM
- fold selective compared to the hP2Y14R (hP2Y14R; hP2Y6R vs hP2Y14R): 10 fold
- Ki (5-HT1D; PDSP, mean, n = 2, read-out: Ki, 5-HT1D): 3200 nM
- Ki (5-HT1D; Table S2, single determinations, read-out: Ki (nM), 5-HT1D): 3260 nM and 3040 nM
- Ki (D5; PDSP, mean, n = 2, read-out: Ki, D5): 2400 nM
- Ki (D5; Table S2, single determinations, read-out: Ki (nM), D5): 1360 nM and 3420 nM

Structure (SMILES): CC[Si](C#Cc1ccc2c(c1)C=C([N+](=O)[O-])C(C(F)(F)F)O2)(CC)CC (centres unmarked) [Compound 13]
- inhibition at most other P2YRs (other P2YRs): minor
- IC50 (hP2Y6R): 0.604 ± 0.239 µM
- Ki (α2A [3]): 2 µM

Structure (SMILES): O=C(O)c1ccc(C#Cc2ccc3c(c2)C=C([N+](=O)[O-])C(C(F)(F)F)O3)cc1 (centres unmarked) [Compound 17]
- inhibition at most other P2YRs (other P2YRs): minor
- Ki (µ-opioid receptor (MOR)): 4.2 µM
- Ki (α2C): 2.6 µM

Structure (SMILES): S=C=Nc1cccc(NC(=S)NCCCCNC(=S)Nc2cccc(N=C=S)c2)c1 [Compound 1]
- IC50 (rP2Y6): 0.098 µM

- off-target interactions at 45 target sites [4]: no off-target interactions and none
Structure (SMILES): O=[N+]([O-])C1=Cc2cc(F)cc(F)c2OC1C(F)(F)F (centres unmarked) [Compound 2b]
- IC50 (mP2Y6): 17.8 µM
- % survival (HeLa cells; 0.1 µM): 87%
- % survival (HeLa cells; 0.5 µM): 86%
- % survival (HeLa cells; 1 µM): 87%
- % survival (HeLa cells; 5 µM): 84%
- % survival (HeLa cells; 10 µM): 78%
- inhibition of viability (HeLa cells; at 10 µM, 12 h exposure): 22%
- % survival ([1]; 0.1 µM): 104%
- % survival ([1]; 0.5 µM): 104%
- % survival ([1]; 1 µM): 105%
- % survival ([1]; 5 µM): 98%
- % survival ([1]; 10 µM): 88%
- inhibition of viability ([1]; hP2Y6R-1321N1 cells, at 10 µM, 12 h exposure): 12%
